# Data: US20090214507A1, “METHOD OF TREATING PREVENTING, INHIBITING OR REDUCING DAMAGE TO CARDIAC TISSUE” (RegeneRx Biopharmaceuticals, Inc., priority 2004, published 2009)
# Columns and labels:
# [1] = system: ILK / Akt; assay: western blot of heart lysates after coronary ligation; assay type: in vivo, mouse
# Description: Because thymosin β4 upregulates ILK activity and Akt phosphorylation in cultured cells, the effects on these kinases in vivo were tested. […] Total Akt protein was not increased.
# (§1) Myocardial infarction was produced in fifty-eight male C57BL/6J mice at 16 weeks of age (25-30 g) by ligation of the left anterior descending coronary artery as previously described. Twenty-nine of the ligated mice received thymosin β4 treatment immediately following ligation and the remaining twenty-nine received PBS injections. Treatment was given intracardiac with thymosin β4 (200 ng in 10 ul collagen) or with 10 ul of collagen; intraperitoneally with thymosin β4 (150 μg in 300 μl PBS) or with […]; or by both intracardiac and intraperitoneal injections. Intraperitoneal injections were given every three days until mice were sacrificed. Doses were based on previous studies of thymosin β4 biodistribution. Hearts were removed, weighed and fixed for histologic sectioning. Additional mice were operated on in a similar fashion for studies 0.5, 1, 3, 6 and 11 days after ligation.
# [2] = system: ILK / Akt; assay: ILK localization, expression and activation (immunocytochemistry, Western); assay type: cell-based
# Description: Because recruitment of ILK to the focal adhesion complex is important for its activation, the effects of thymosin β4 on ILK localization and expression were assayed. […] Because thymosin β4 sequesters the pool of G-actin monomers, the effects on ILK activation were dependent on thymosin β4's role in regulating the balance between polymerized F-actin and monomeric G-actin were tested.
# [3] = system: myocardial infarction in adult mice; assay: myocardial infarction by coronary artery ligation, echocardiography and histology; assay type: in vivo, mouse
# Description: Because of thymosin β4's effects on survival and migration of cardiomyocytes cultured in vitro and phosphorylation of Akt, it was tested whether thymosin β4 might aid in cardiac repair in vivo after myocardial damage. Myocardial infarctions in fifty-eight adult mice were created by coronary artery ligation and treated half with systemic, intracardiac, or systemic plus intracardiac thymosin β4 immediately after ligation and the other half with PBS. Intracardiac injections were done with collagen (control) or collagen mixed with thymosin β4. All forty-five mice that survived two weeks later were interrogated for cardiac function by random-blind ultrasonography at 2 and 4 weeks after infarction by multiple measurements of cardiac contraction. […] Control cardiac injections were performed with the same collagen vehicle making it unlikely that an endogenous reaction to the injection contributed to the cardiac recovery.
# To determine the manner in which […] improved cardiac function, multiple serial histologic sections of hearts treated with or without thymosin β4 were examined. […] TUNEL positive cells that were also myocytes were rare in the thymosin β4 group but abundant in the control hearts. […] Thus, the decreased scar volume and preserved function of thymosin β4 treated mice were likely due to early preservation of myocardium after infarction through thymosin β4's effects on survival of cardiomyocytes.
# Embryonic or adult cardiac tissue was embedded in paraffin and sections used for immunohistochemistry. […] Adult hearts were sectioned at ten equivalent levels from the base of the heart to the apex. Serial sections were used for trichrome sections and reaction with sarcomeric a-actinin, c-kit, Sca-1, Abcg2, and BrdU antibodies and for TUNEL assay (Intergen Company #S7111).
# as §1
# Echocardiograms to assess systolic function were performed using M-mode and 2-dimensional measurements as described previously. The measurements represented the average of six selected cardiac cycles from at least two separate scans performed in random-blind fashion with papillary muscles used as a point of reference for consistency in level of scan. End diastole was defined as the maximal left ventricle (LV) diastolic dimension and end systole was defined as the peak of posterior wall motion. Single outliers in each group were omitted for statistical analysis. Fractional shortening (FS), a surrogate of systolic function, was calculated from LV dimensions as follows: FS=EDD−ESD/EDD×100%. Ejection fraction (EF) was calculated from two-dimensional images. EDD, end diastolic dimension; ESD, end systolic dimension.
# Scar volume was calculated using six sections through the heart of each mouse using Openlab 3.03 software (Improvision) similar to previously described. Percent area of collagen deposition was measured on each section in blinded fashion and averaged for each mouse.
# [4] = system: cardiac endothelial cells; assay: collagen gel assay, transformation of cardiac endothelial cells to mesenchymal cells; assay type: cell-based; details: Tβ4 at physiological concentrations
# Description: Synthetic Tβ4 and an antibody to Tβ4 was provided by RegeneRx Biopharmaceuticals, Inc. (3 Bethesda Metro Center, Suite 700, Bethesda, Md. 20814) and were tested in a collagen gel assay to determine their effects on the Transformation of cardiac endothelial cells to mesenchymal cells. It is well established that development of heart valves and other cardiac tissue are formed by epithelial-mesenchymal transformation and that defects in this process can cause serious cardiovascular malformation and injury during development and throughout life. […] Transformation of atrioventricular endocardium into invasive mesenchyme is an aspect of the formation and maintenance of normal cardiac tissue and in the formation of heart valves.
# [5] = target: T1, PINCH (Mus musculus, UniProt Q99JW4); assay: phage display ELISA and coimmunoprecipitation with PINCH; assay type: binding; details: ELISA; coimmunoprecipitation in transfected cultured cells
# T1 construct: made in house; host or cells: T7 phage amplified in E. coli BLT5615
# From the text: (§2) To investigate the potential mechanisms through which thymosin β4 might be influencing cell migration and survival events, thymosin β4 interacting proteins were searched. The amino-terminus of thymosin β4 was fused with affi-gel beads resulting in exposure of the carboxy-terminus that allowed identification of previously unknown interacting proteins but prohibited association with actin. An E9.5-12.5 mouse heart T7 phage cDNA library was synthesized and screened by phage display and thymosin β4-interacting clones were enriched and confirmed by ELISA. […] PINCH and integrin linked kinase (ILK) interact directly with one another and indirectly with the actin cytoskeleton as part of a larger complex involved in cell-extracellular matrix interactions known as the focal adhesion complex. PINCH and ILK are required for cell motility and for cell survival, in part by promoting phosphorylation of the serine-threonine kinase Akt/protein kinase B, a central kinase in survival and growth signaling pathways. […] The PINCH interaction with thymosin β4 mapped to the fourth and fifth LIM domains of PINCH while the amino terminal ankryin domain of ILK was sufficient for thymosin β4 interaction.
# 300 ul of Affi-Gel 15 (Bio-Rad Laboratories) was coupled with 12 ug of synthesized thymosin β4 protein (RegeneRx) following the manufacturers manual, likely via amino terminal lysine residues. […]
# [6] = system: primary rat neonatal cardiomyocytes; assay: primary neonatal cardiomyocyte culture on laminin-coated glass; assay type: cell-based
# Description: (§3) To test the response of post-natal cardiomyocytes, primary rat neonatal cardiomyocytes were cultured on laminin-coated glass and treated the cells with phosphate buffered saline (PBS) or thymosin β4.
# Primary culture of neonatal cardiomyocytes typically survived for approximately one to two weeks with some cells beating up to two weeks when grown on laminin-coated slides in our laboratory. […] In addition, the rate of beating was consistently faster in thymosin β4-treated neonatal cardiomyocytes (95 vs. 50 beats per minute, p<0.02), indicating either a change in cell-cell communication or more vigorous cardiomyocytes.
# [7] = target: T2, integrin linked kinase (ILK) (Homo sapiens, UniProt Q13418); assay: coimmunoprecipitation with ILK; assay type: binding; details: coimmunoprecipitation in transfected cultured cells
# T2 construct: expressed in transfected cells; host or cells: Cos and 10T1/2 cells
# T2 sequence (Q13418 1-452): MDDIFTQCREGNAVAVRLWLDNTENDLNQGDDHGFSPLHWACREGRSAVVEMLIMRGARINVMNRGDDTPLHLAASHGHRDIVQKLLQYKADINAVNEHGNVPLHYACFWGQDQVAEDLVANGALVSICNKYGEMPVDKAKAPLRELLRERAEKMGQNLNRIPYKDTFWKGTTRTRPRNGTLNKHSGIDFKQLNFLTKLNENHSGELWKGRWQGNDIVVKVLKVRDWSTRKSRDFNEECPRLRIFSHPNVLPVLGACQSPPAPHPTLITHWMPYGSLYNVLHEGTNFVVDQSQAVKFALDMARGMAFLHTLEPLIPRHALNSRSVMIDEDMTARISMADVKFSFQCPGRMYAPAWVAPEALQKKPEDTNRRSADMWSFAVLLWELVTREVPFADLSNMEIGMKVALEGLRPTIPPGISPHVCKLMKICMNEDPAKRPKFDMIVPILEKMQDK
# From the text: as §2
# Cos and 10 T1/2 cells were transfected with thymosin β4, PINCH and/or ILK and lysates precipitated with antibodies to each as previously described. […]
# [8] = system: embryonic heart explants; assay: embryonic heart explant collagen gel migration assay; assay type: cell-based, mouse
# Description: To test the effects of secreted thymosin β4 on cardiac cell migration, an embryonic heart explant system designed to assay cell migration and transformation events on a three-dimensional collagen gel was utilized. In this assay, explants of adjacent embryonic myocardium and endocardium from valve-forming regions were placed on a collagen gel with the endocardium adjacent to the collagen.
# as §3
# To determine if activation of ILK was necessary for the observed effects of thymosin β4, a well-described ILK inhibitor, wortmannin, was employed, which inhibits ILK's upstream kinase, phosphatidylinositol 3-kinase (PI3-kinase). Using myocardial cell migration and beating frequency as assays for thymosin β4 activity, embryonic heart explants were cultured as described above in the presence of thymosin β4 with or without wortmannin.
# Outflow tract was dissected from E11.5 wild type mouse embryos and placed on collagen matrices as previously described. After 10 hours of attachment explants were incubated in 30 ng/300 μl thymosin β4 in PBS, PBS alone or thymosin β4 and 100 nM wortmannin. Cultures were carried out for 3-9 days at 37° C. 5% CO2 and fixed in 4% paraformaldehyde in PBS for 10 min at RT. Cells were counted for quantification of migration and distance using at least three separate explants under each condition for endothelial migration and eight separate explants for myocardial migration.
# Paraformaldehyde-fixed explants were permeabilized for 10 min at RT with Permeabilize solution (10 mM PIPES pH6.8; 50 mMNaC1; 0.5% Triton X-100; 300 mM Sucrose; 3 mM MgC12) and rinsed with PBS 2×5 min at RT. After a series of blocking and rinsing steps, detection antibodies were used and explants rinsed and incubated with Equilibration buffer (Anti-Fade kit) 10 min at room temperature. Explants were scooped to a glass microscope slide, covered, and examined by fluorescein microscopy. TUNEL assay was performed using ApopTag Plus Fluorescein In Situ Apoptosis detection kit (Intergen Company #S7111) as recommended.
# [9] = four weeks after infarction, versus control
# T1 sequence (Q99JW4 whole entry): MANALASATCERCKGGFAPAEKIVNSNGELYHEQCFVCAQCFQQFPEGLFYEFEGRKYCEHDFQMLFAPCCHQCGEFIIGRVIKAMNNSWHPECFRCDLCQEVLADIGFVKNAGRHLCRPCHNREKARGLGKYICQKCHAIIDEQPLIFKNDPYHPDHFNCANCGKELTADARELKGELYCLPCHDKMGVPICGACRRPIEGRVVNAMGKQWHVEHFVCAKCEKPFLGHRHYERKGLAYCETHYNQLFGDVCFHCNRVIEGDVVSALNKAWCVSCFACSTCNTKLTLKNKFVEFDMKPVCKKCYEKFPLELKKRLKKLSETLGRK
substance,measurement,setting,value
thymosin β4,total Akt protein,[1],not increased
same,level of ILK protein in heart lysates,[1]; compared with PBS treated mice,increased
same,amount of phosphorylated Akt-5473,[1]; phospho-specific antibodies,elevation
same,ILK protein levels (Western analysis),[2]; C2C12 cells,modest increase
same,total Akt protein,[2]; C2C12 cells,unchanged
same,phosphorylation of Akt (serine 473),"[2]; C2C12 cells, phospho-specific antibody",increased phosphorylation
same,ILK detection by immunocytochemistry,"[2]; embryonic heart explants or C2C12 myoblasts, 10 ng/100 ul synthetic protein or expressing plasmid",markedly enhanced around the cell edges
same,cardiac dilation after infarction (EDD and ESD),[3]; EDD and ESD significantly higher in control group,decreased cardiac dilation
same,mean ejection fraction,"[3]; four weeks after infarction, n=23, 95% confidence interval, control 28.2",57.7+/−3.2%
same,mean left ventricle fractional shortening,"[3]; four weeks after infarction, n=23, 95% confidence intervals, control 23.2",37.2+/−1.8%
same,improvement in cardiac fractional shortening,[3]; [9],greater than 60%
same,improvement in ejection fraction,[3]; [9],> 100%
same,"degree of improvement, systemic (intraperitoneal) versus local intracardiac administration","[3]; mouse, in vivo, ip",not statistically different
same,scar volume,"[3]; six levels of sections through left ventricle, subset of mice, p<0.05",significant reduction
same,left ventricle fractional shortening,"[3]; three days after infarction, intracardiac treatment, n=4, 95% confidence interval, control 28.8",39.2+/−2.34%
same,ejection fraction,"[3]; three days after infarction, intracardiac treatment, control 44.7",64.2+/−6.69%
same,size of scar (trichrome stain),"[3]; three levels of section, all treated mice",reduced
same,cardiomyocyte proliferation or death,"[3]; three, six, eleven or fourteen days after coronary ligation",did not detect significant cardiomyocyte proliferation or death
same,"number of c-kit, Sca-1 or Abcg2 positive cardiomyocytes",[3]; treated versus untreated hearts,no detection of any differences
same,cardiomyocyte cell death by TUNEL assay,[3]; twenty-four hours after ligation,striking decrease in cell death
same,transformation of endocardial cells to mesenchymal cells,[4],markedly enhances
same,interaction with PINCH,[5],interacted with thymosin β4 in the absence of actin
same,migrational distance of neonatal cardiomyocytes,"[6]; compared to control, p<0.05",significantly increased
same,"survival in culture, rhythmically contracting myocytes visible",[6]; control cultures survive approximately one to two weeks,up to 28 days
same,rate of beating,"[6]; vs. 50 in control, p<0.02",95 beats per minute
same,interaction with ILK,[7],weaker than with PINCH
same,number of migrating endothelial cells,"[8]; E11.5 explants, compared to PBS, p<0.01",increased number of migrating endothelial cells
same,cell death (TUNEL assay) in migrated cells,[8]; compared to control cells,No significant difference
same,proliferative rate (phosho-histone H3 immunostaining) in migrated cells,[8]; compared to control cells,No significant difference
same,migration of myocardial cells away from the explant,[8]; thymosin β4 added to primary explants on collagen gel,"a large number of spontaneously beating, cardiac muscle actin-positive cells had migrated away from the explant"
